According to patent US11147803B2, “Dementia therapeutic agent combining pyrazoloquinoline derivative and memantine” (Eisai R&D Management Co., Ltd., priority 2017, dated 2021):

System: rats with scopolamine-induced cognitive impairment
Test: Novel object recognition test using rats with scopolamine-induced cognitive impairment
Format: in vivo, rat (Long Evans)
Conditions: for percentage of exploration of the novel object in T2: scopolamine 0.7 mg/kg s.c., mean±standard error
From the text: [Test Example 1] Novel Object Recognition Test Using Rats with Scopolamine-Induced Cognitive Impairment
Acetylcholine nervous system disorder has been reported in Alzheimer's disease (Whitehouse et al., Science, 1982, vol. 215, p. 1237), and scopolamine-administered animals are utilizable as an animal model for Alzheimer's disease. Scopolamine is a muscarine receptor inhibitor which blocks acetylcholine nervous system transmission.
6-week-old male Long Evans rats (Institute for Animal Reproduction) were subjected to the test. A habituation process to the experimental procedure was carried out once per day for 2 days prior to the test. In the habituation process, a vehicle was administered to the rats, and then the rats were placed in an empty test apparatus (40 cm×30 cm×45 cm height) and allowed to explore for 3 minutes, and after then placed in a waiting chamber (13 cm×30 cm×45 cm height) for about 1 minute, they were returned to the empty test apparatus again and left for 5 minutes.
An acquisition trial (T1) was carried out on the day of the test. Compound (I) was orally administered 2 hours before T1. Memantine hydrochloride was orally administered 1 hour before T1. Scopolamine (Wako Pure Chemical Industries, Ltd.) was subcutaneously administered 30 minutes before T1 at a dose of 0.7 mg/kg. In T1, the rats were habituated to the empty test apparatus for 3 minutes and then placed in the waiting chamber. After setting two identical objects in the test apparatus, the rats were returned into the test apparatus again and allowed to freely explore the two identical objects for 5 minutes. The rats were then returned into their rearing cages. After 2 hours, a retention trial (T2) was carried out. The rats were placed in the empty test apparatus for 3 minutes for habituation, and were then transferred into the waiting chamber. After setting an object used in T1 (“familiar” object) and an object not used in T1 (“novel” object) in the test apparatus, the rats were again returned into the test apparatus and allowed to freely explore these objects for 3 minutes. The objects were wiped with a wet wipe impregnated with ethanol after each experiment so as to leave no trace of odor. The behaviors of the rats during T1 and T2 were recorded by a digital video camera, and the total exploration time for each object was manually measured using a stopwatch. Exploratory behavior was defined as the behavior in which the rat brings its nose within 2 cm of the object and directs its nose toward the object.
In the novel object recognition test, the percentage of exploration of the novel object in T2 is considered to be an index for amnesia, reflecting discrimination between the familiar object and the novel object. The percentage of exploration of the novel object was calculated by the following formula. The percentage of exploration of the novel object (%)=N/(N+F)×100 F: time spent in exploring the familiar object N: time spent in exploring the novel object
Rats whose total time spent in exploring the objects during T1 or T2 was 10 seconds or less or rats whose percentage of the time spent in exploring either of the objects during T1 was not less than 70% or not more than 30% of the total exploration time were excluded from the data analysis.
The results were expressed as mean±standard error. The difference between the normal control group untreated with scopolamine and the disease control group treated with scopolamine was analyzed by an unpaired t-test (significant difference: *). The difference between the disease control group and the single drug-treated group was analyzed by Dunnett-type multiple comparison test (significant difference: #). The difference between the combined treatment group and the single drug-treated group was analyzed by an unpaired t-test (significant difference: ※). A value of p<0.05 was judged to be a statistically significant difference. Statistical analysis was conducted using GraphPad Prism version 5.04 or 6.02.

Structure (SMILES) | percentage of exploration of the novel object in T2 (Compound (I) 0.3 mg/kg orally 2 hours before T1) | percentage of exploration of the novel object in T2 (Compound (I) 1 mg/kg orally 2 hours before T1) | percentage of exploration of the novel object in T2 (Compound (I) 3.3 mg/kg orally 2 hours before T1, # significant vs disease control) | percentage of exploration of the novel object in T2 (Compound (I) 10 mg/kg orally 2 hours before T1, # significant vs disease control) | ameliorative effect on the percentage of exploration of the novel object (significance vs disease control) (compound (I) 1 mg/kg (Table 1)) | ameliorative effect on the percentage of exploration of the novel object (significance vs disease control) (compound (I) 3.3 mg/kg (Table 2)) | percentage of exploration of the novel object in T2 (Memantine 1 mg/kg orally 1 hour before T1) | percentage of exploration of the novel object in T2 (Memantine 3 mg/kg orally 1 hour before T1, # significant vs disease control) | percentage of exploration of the novel object in T2 (Memantine 10 mg/kg orally 1 hour before T1) | ameliorative effect on the percentage of exploration of the novel object (significance vs disease control) (memantine hydrochloride 1 mg/kg alone (Table 4)) | ameliorative effect on the percentage of exploration of the novel object (significance vs disease control) (memantine hydrochloride 3 mg/kg (Table 3))
COc1ncc(C)c(-c2ccc3c(c2)[nH]c(=O)c2cnn([C@H]4CCOC4)c23)c1C [Compound (I), (S)-7-(2-methoxy-3,5-dimethylpyridin-4-yl)-1-(tetrahydrofuran-3-yl)-1H-pyrazolo[4,3-c]quinoline-4(5H)-one] | 58.7 ± 3.2% | 59.9 ± 3.4% | 68.5 ± 2.0# % | 68.5 ± 1.6# % | did not exhibit a significant effect | significant ameliorative effect |  |  |  |  | 
CC12CC3CC(C)(C1)CC(N)(C3)C2 [Memantine, memantine] |  |  |  |  |  |  | 58.1 ± 2.4% | 68.9 ± 4.0# % | 59.9 ± 3.8% | no significant ameliorative effect | significant ameliorative effect
